Among the data in PubChem BioAssay (NCI) are TGI and GI50 values, retold here.

Test systems include HL-60(TB) leukemia; OVCAR-8 ovarian; LOX IMVI melanoma; MCF7 breast; MDA-N; SR leukemia; HCC-2998 colon; HCT-116 colon; HOP-62 NSCLC; COLO 205 colon; SW-620 colon; A549 NSCLC; NCI-H23 lung; ACHN renal; OVCAR-5 ovarian; SK-MEL-5 melanoma; TK-10 renal.
Common to all, as to assay: NCI tumour cell line growth inhibition, 48 h

Where “and” joins values, the source holds several entries; their conditions need not be identical. Equal entries are not always repeated.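 Cultured in 96-well plates, cells were exposed to test compound for 48 hours across five concentrations. GI50 marks 50% less growth. At the TGI there is no net growth.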 Bounds are passed on as bounds.

Regarding `Cc1cnc2[nH]c(-c3cccc4ccccc34)cc(=O)c2c1`, the TGI with HL-60(TB) leukemia is 0.000577 µM; in the experiment with OVCAR-8 ovarian, 0.108 µM; in the experiment with LOX IMVI melanoma it was 79.6 µM; in the experiment on MCF7 breast, 41.6 µM; in the experiment with MDA-N, 0.000572 µM; with SR leukemia, more than 100 µM. For the same molecule, the TGI in the experiment on HCC-2998 colon was 0.029 µM and 0.0576 µM; in the experiment on HCT-116 colon, more than 100 µM; in the experiment with HOP-62 NSCLC, more than 100 µM; with COLO 205 colon, 0.00496 µM; with SW-620 colon it was more than 100 µM; in the experiment with A549 NSCLC, more than 100 µM. In addition, the TGI in the experiment on NCI-H23 lung is more than 100 µM; with ACHN renal it was 64.6 µM; in the experiment on OVCAR-5 ovarian it was more than 100 µM. For the same molecule, the GI50 in the experiment with HOP-62 NSCLC was 0.127 µM.

Turning to `N#CCc1nc(-c2cc3ccccc3oc2=O)cs1`, the TGI with HL-60(TB) leukemia is more than 100 µM; with OVCAR-8 ovarian it was more than 100 µM; in the experiment with SK-MEL-5 melanoma, 64 µM; with TK-10 renal, more than 100 µM; with LOX IMVI melanoma, more than 100 µM; in the experiment on MCF7 breast, more than 100 µM. Further, the TGI in the experiment with MDA-N, in the experiment on SR leukemia, in the experiment with HCC-2998 colon, in the experiment on HCT-116 colon, in the experiment on HOP-62 NSCLC and with COLO 205 colon was more than 100 µM each time. The TGI in the experiment on SW-620 colon, in the experiment on A549 NSCLC, in the experiment with ACHN renal and in the experiment with OVCAR-5 ovarian was more than 100 µM each time.

In the case of `COc1cc(CCN)c(OC)c(OC)c1`, the TGI with HL-60(TB) leukemia is more than 100 µM; in the experiment with OVCAR-8 ovarian, more than 100 µM; in the experiment on SK-MEL-5 melanoma it was 54.9 µM; in the experiment on TK-10 renal, more than 100 µM; in the experiment with LOX IMVI melanoma, more than 100 µM; in the experiment on MCF7 breast, more than 100 µM. The TGI in the experiment with MDA-N, in the experiment on SR leukemia, in the experiment on HCT-116 colon, in the experiment on HOP-62 NSCLC, with COLO 205 colon and in the experiment on SW-620 colon was more than 100 µM in each case. In addition, the TGI in the experiment on A549 NSCLC, in the experiment on NCI-H23 lung, in the experiment on ACHN renal and in the experiment with OVCAR-5 ovarian was more than 100 µM throughout.

Regarding `CCCN1C(=O)CN(S(=O)(=O)c2ccc(Cl)cc2)C1=O`, the TGI in the experiment with HL-60(TB) leukemia, in the experiment on SK-MEL-5 melanoma, in the experiment with TK-10 renal, in the experiment on LOX IMVI melanoma, in the experiment with MCF7 breast and in the experiment with MDA-N was more than 100 µM in each case. In addition, the TGI with SR leukemia, with HCC-2998 colon, with HCT-116 colon, in the experiment with HOP-62 NSCLC, in the experiment on COLO 205 colon and with SW-620 colon was more than 100 µM each time. Further, the TGI in the experiment on A549 NSCLC, in the experiment on NCI-H23 lung, in the experiment with ACHN renal and in the experiment with OVCAR-5 ovarian was more than 100 µM throughout.

Take `CN(/N=C/c1ccccn1)C1=NCCN1`: the TGI in the experiment on HL-60(TB) leukemia, in the experiment with OVCAR-8 ovarian, in the experiment with SK-MEL-5 melanoma, in the experiment on LOX IMVI melanoma, in the experiment on MCF7 breast and in the experiment with MDA-N was more than 100 µM throughout. The TGI in the experiment on SR leukemia, in the experiment with HCC-2998 colon, in the experiment with HCT-116 colon, in the experiment with HOP-62 NSCLC, in the experiment with COLO 205 colon and with SW-620 colon was more than 100 µM in each case. For the same molecule, the TGI in the experiment on A549 NSCLC, in the experiment with NCI-H23 lung, in the experiment with ACHN renal and with OVCAR-5 ovarian was more than 100 µM each time.

As to `C=C1CC[C@@H]2[C@](C)(COC(=O)CCC(=O)OC)CCC[C@@]2(C)[C@@H]1CCC1=CC(=O)OC1`, the TGI in the experiment with HL-60(TB) leukemia was 51.2 µM; in the experiment with OVCAR-8 ovarian, more than 100 µM; in the experiment on SK-MEL-5 melanoma it was more than 100 µM; in the experiment on TK-10 renal it was more than 100 µM; in the experiment on LOX IMVI melanoma, more than 100 µM; with MCF7 breast, more than 100 µM. The TGI in the experiment with MDA-N is more than 100 µM; with SR leukemia, 51.4 µM; in the experiment on HCT-116 colon it was more than 100 µM; in the experiment on HOP-62 NSCLC, more than 100 µM; in the experiment with COLO 205 colon, more than 100 µM; with SW-620 colon it was more than 100 µM. The TGI in the experiment with A549 NSCLC, in the experiment with NCI-H23 lung, in the experiment on ACHN renal and in the experiment on OVCAR-5 ovarian was more than 100 µM each time.

Turning to `N#CCC(=O)N/N=C\C(O)C(O)C(O)C(O)CO` (stereo not drawn), the TGI in the experiment on HL-60(TB) leukemia, in the experiment with OVCAR-8 ovarian, with SK-MEL-5 melanoma, with TK-10 renal, in the experiment with LOX IMVI melanoma and in the experiment on MCF7 breast was more than 100 µM throughout. The TGI with MDA-N, with SR leukemia, in the experiment on HCC-2998 colon, with HOP-62 NSCLC, in the experiment with SW-620 colon and in the experiment with A549 NSCLC was more than 100 µM in each case. In addition, the TGI with NCI-H23 lung, in the experiment with ACHN renal and in the experiment with OVCAR-5 ovarian was more than 100 µM each time.

Turning to `NCCc1ccc(S(=O)(=O)O)cc1[N+](=O)[O-]`, the TGI in the experiment with HL-60(TB) leukemia, in the experiment on OVCAR-8 ovarian, with SK-MEL-5 melanoma, in the experiment with TK-10 renal, with LOX IMVI melanoma and in the experiment with MCF7 breast was more than 100 µM in each case. Further, the TGI in the experiment on MDA-N, in the experiment with SR leukemia, in the experiment with HCT-116 colon, in the experiment on HOP-62 NSCLC, in the experiment with COLO 205 colon and with SW-620 colon was more than 100 µM each time. For the same molecule, the TGI in the experiment with A549 NSCLC, in the experiment with NCI-H23 lung, in the experiment with ACHN renal and with OVCAR-5 ovarian was more than 100 µM throughout.

With `CC(=O)n1c2ccc(Br)cc2c2nc3ccccc3nc21`, the TGI in the experiment on HL-60(TB) leukemia, in the experiment with OVCAR-8 ovarian, in the experiment on SK-MEL-5 melanoma, in the experiment on TK-10 renal, in the experiment on LOX IMVI melanoma and in the experiment on MCF7 breast was more than 100 µM each time. Further, the TGI in the experiment on MDA-N, with SR leukemia, in the experiment on HCC-2998 colon, in the experiment with HCT-116 colon, with HOP-62 NSCLC and with COLO 205 colon was more than 100 µM in each case. Moreover, the TGI in the experiment with SW-620 colon, in the experiment on NCI-H23 lung, in the experiment on ACHN renal and in the experiment on OVCAR-5 ovarian was more than 100 µM throughout.
